Assay results as given in PMC8560763, “Roles of metal ions in the selective inhibition of oncogenic variants of isocitrate dehydrogenase 1” (Communications Biology, 2021).
Where “and” joins values, the source holds several entries; their conditions need not be identical. Equal values may be shown once. One block for each compound: values may come before it.

Assays:
wt IDH1 [1] = molecular target: T1, wt IDH1 (Homo sapiens, UniProt O75874); assay: Differential scanning fluorimetry (DSF) thermal shift, wt IDH1; type: binding; conditions: 50 mM Tris-HCl, pH 7.5; for thermal stabilisation by cosubstrates: wt IDH1, 0.125—4 mM; for thermal stabilisation (shift in Tm): wt IDH1, divalent metal ions (5 mM)
T1 construct: made in house; host or cells: Escherichia coli BL21(DE3) pLyS
T1 sequence (O75874 2-414): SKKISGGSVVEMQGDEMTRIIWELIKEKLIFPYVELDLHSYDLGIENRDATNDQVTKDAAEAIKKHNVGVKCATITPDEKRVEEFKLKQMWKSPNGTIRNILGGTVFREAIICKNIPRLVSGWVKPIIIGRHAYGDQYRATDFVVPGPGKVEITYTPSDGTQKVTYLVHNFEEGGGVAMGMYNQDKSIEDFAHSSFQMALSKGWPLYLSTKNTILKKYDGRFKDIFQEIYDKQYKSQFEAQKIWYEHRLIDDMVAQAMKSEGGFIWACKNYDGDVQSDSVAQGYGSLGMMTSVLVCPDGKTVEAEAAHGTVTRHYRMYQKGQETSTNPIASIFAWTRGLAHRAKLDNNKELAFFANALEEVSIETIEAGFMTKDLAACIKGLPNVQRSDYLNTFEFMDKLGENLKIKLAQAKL
Protocol: Thermal shift experiments were carried out using Sypro Orange dye and a CFX96 Touch^TM Real-Time PCR Detection System (Bio-Rad)[69]. […] The standard assay buffer contains 50 mM Tris-HCl at pH 7.5. Various concentrations of substrates were mixed with IDH1 for thermal stabilisation studies. […] Bio-Rad CFX Manager was used to determine the melting temperature, Tm.

wt IDH1 [2] = molecular target: T1, wt IDH1; assay: Absorbance assay: kinetics of reductive reaction (2OG to isocitrate) by wt IDH1; type: biochemical
Protocol: (§1) All experiments were performed in (at least) triplicate.
(§2) KM values were determined by varying concentrations of the substrate/cofactor under investigation while maintaining the concentrations of other components using standard conditions. […] Graphs were fitted using GraphPad Prism to obtain kinetic parameters.

wt IDH1 [3] = molecular target: T1, wt IDH1; assay: CPMG-edited 1H NMR ligand binding, wt IDH1; conditions: for binding to wt IDH1 / displacement of D-isocitrate from wt IDH1: without metal ions; for binding to wt IDH1: DSF and NMR; for weakening of D-isocitrate binding to wt IDH1: with Mg^2+ or Ca^2+ (10 mM); for displacement of D-isocitrate from wt IDH1: inhibitor 50 µM, D-isocitrate 50 µM, wt IDH1 6.25 µM
Protocol: Additional solvent presaturation was applied for 2 s. The assay mixture contains 160 µL of a 50 µM solution of the compound of interest ± 10 mM metal chloride salts in 50 mM Tris-D11-HCl in 90% H2O/10% D2O at pH 7.5. […] Data were processed with the TopSpin 3.1 software.

wt IDH1 [4] = molecular target: T1, wt IDH1; assay: Absorbance assay: effect of metal ions on catalysis and inhibition of wt IDH1; type: biochemical; conditions: for inhibition by metal ion: wt IDH1, metal ions 10 mM in the presence of 10 mM Mg^2+
wt IDH1 [5] = molecular target: T1, wt IDH1; assay: 1H NMR reaction monitoring, wt IDH1; type: biochemical; conditions: 1H NMR (700 MHz), NADP+, 10 mM MgCl2
wt IDH1 [6] = molecular target: T1, wt IDH1; assay: Non-denaturing protein MS, wt IDH1; type: binding; conditions: wt IDH1 dimer with two NADPHs bound
Protocol: Non-denaturing mass spectra were obtained using a quadrupole time-of-flight mass spectrometer (Synapt HD MS, Waters, Wilmslow, Manchester, UK)[71],[72]. […] Protein concentrations were measured using a Nanodrop spectrometer (Thermo Scientific™ NanoDrop™ One). […] The solution was then sprayed through a nozzle in a Nanomate chip at a spray voltage of 1.8–2.0 kV (spray backing gas pressure 0.8–1.0 psi, inlet pressure 3.8 mbar). […] For promoting collision-induced dissociation of the substrate from its complex with IDH1, a higher cone voltage (200 V) was used. The rest of the voltages and pressures in the mass spectrometer were adjusted for the best resolution and minimum fragmentation. Data collection and analysis were carried out using the Waters MassLynx software. Mass spectra were calibrated externally using the CsI solution to produce CsI cluster ions.

wt IDH1 [7] = molecular target: T1, wt IDH1; assay: Absorbance assay (NADPH, 340 nm): kinetics of oxidative reaction (isocitrate to 2OG) by wt IDH1; type: biochemical
Protocol: as §1, §2

[8] = wt IDH1, reductive reaction (2OG to isocitrate) with Mg^2+, 100 mM NaHCO3
[9] = wt IDH1, oxidative reaction with Mn^2+ (10 mM MnCl2)

thermal stabilisation (shift in Tm) (wt IDH1 [1]): 3.2 °C
inhibition by metal ion (wt IDH1 [4]): inhibiting
SMILES: [Ca+2].[Cl-].[Cl-] [Ca^2+, CaCl2]

inhibition by metal ion (wt IDH1 [4]): no effect
SMILES: [Cl-].[Cs+] [Cs^+]

binding to wt IDH1 (wt IDH1 [3]): bind weakly
Km (wt IDH1 [2]; [8]): 1100 µM
Vmax (wt IDH1 [2]; [8]): 200 ± 16 nM/s
SMILES: O=C(O)CCC(=O)C(=O)O [2OG, 2-oxoglutarate]
Velocity (wt IDH1 [2]; Fig. S2e, [2OG] 312.5 μM): 0.04369 µM/s and 0.04159 µM/s and 0.04334 µM/s
Velocity (wt IDH1 [2]; Fig. S2e, [2OG] 625 μM): 0.08493 µM/s and 0.08598 µM/s and 0.07405 µM/s
Velocity (wt IDH1 [2]; Fig. S2e, [2OG] 2500 μM): 0.1446 µM/s and 0.1407 µM/s and 0.1265 µM/s
Velocity (wt IDH1 [2]; Fig. S2e, [2OG] 5000 μM): 0.1734 µM/s and 0.1435 µM/s and 0.1563 µM/s
Velocity (wt IDH1 [2]; Fig. S2e, [2OG] 10000 μM): 0.2051 µM/s and 0.2078 µM/s and 0.1434 µM/s

binding stoichiometry (wt IDH1 [6]): one inhibitor per IDH1 dimer
weakening of D-isocitrate binding to wt IDH1 (wt IDH1 [3]): not
displacement of D-isocitrate from wt IDH1 (wt IDH1 [3]): partially displaced
SMILES: N#Cc1ccnc(N2C(=O)CC[C@H]2C(=O)N(c2cncc(F)c2)[C@H](C(=O)NC2CC(F)(F)C2)c2ccccc2Cl)c1 [AG-120, Ivosidenib]

binding to wt IDH1 (wt IDH1 [3]): not observed to bind
SMILES: O=C(O)CCC(O)C(=O)O (stereo not shown) [2HG, 2-hydroxyglutarate]

thermal stabilisation by cosubstrates (wt IDH1 [1]): stabilise
Velocity (wt IDH1 [7]; Fig. S3b, MnCl2 as metal, [NADP+] 300 μM): 0.3651 µM/s
SMILES: NC(=O)c1ccc[n+](C2OC(COP(=O)(O)OP(=O)([O-])OCC3OC(n4cnc5c(N)ncnc54)C(OP(=O)(O)O)C3O)C(O)C2O)c1 (stereo not shown) [NADP^+]
Velocity (wt IDH1 [7]; Fig. S2b, [NADP+] 9.375 μM): 0.05756 µM/s and 0.05177 µM/s and 0.06247 µM/s
Velocity (wt IDH1 [7]; Fig. S2b, [NADP+] 18.75 μM): 0.1158 µM/s and 0.09809 µM/s and 0.09195 µM/s
Velocity (wt IDH1 [7]; Fig. S2b, [NADP+] 37.5 μM): 0.1572 µM/s and 0.1441 µM/s and 0.152 µM/s
Velocity (wt IDH1 [7]; Fig. S2b, [NADP+] 75 μM): 0.1869 µM/s and 0.1658 µM/s and 0.2058 µM/s
Velocity (wt IDH1 [7]; Fig. S2b, [NADP+] 150 μM): 0.2085 µM/s and 0.1992 µM/s and 0.219 µM/s
Velocity (wt IDH1 [7]; Fig. S2b, [NADP+] 300 μM): 0.2511 µM/s and 0.2272 µM/s and 0.239 µM/s
Velocity (wt IDH1 [7]; Fig. S2b, [NADP+] 600 μM): 0.245 µM/s and 0.2229 µM/s and 0.192 µM/s
Velocity (wt IDH1 [7]; Fig. S2b, [NADP+] 1200 μM): 0.2522 µM/s and 0.2318 µM/s and 0.2402 µM/s
Velocity (wt IDH1 [7]; Fig. S2b, [NADP+] 2400 μM): 0.2325 µM/s and 0.2464 µM/s and 0.2378 µM/s
Velocity (wt IDH1 [7]; Fig. S3b, MnCl2 as metal, [NADP+] 2.34375 μM): 0.01474 µM/s and 0.01079 µM/s and 0.008423 µM/s
Velocity (wt IDH1 [7]; Fig. S3b, MnCl2 as metal, [NADP+] 4.6875 μM): 0.04185 µM/s and 0.03843 µM/s and 0.02737 µM/s
Velocity (wt IDH1 [7]; Fig. S3b, MnCl2 as metal, [NADP+] 9.375 μM): 0.08765 µM/s and 0.07107 µM/s and 0.0637 µM/s
Velocity (wt IDH1 [7]; Fig. S3b, MnCl2 as metal, [NADP+] 18.75 μM): 0.1629 µM/s and 0.1316 µM/s and 0.1234 µM/s
Velocity (wt IDH1 [7]; Fig. S3b, MnCl2 as metal, [NADP+] 37.5 μM): 0.2419 µM/s and 0.1971 µM/s and 0.1732 µM/s
Velocity (wt IDH1 [7]; Fig. S3b, MnCl2 as metal, [NADP+] 75 μM): 0.3032 µM/s and 0.278 µM/s and 0.2851 µM/s
Velocity (wt IDH1 [7]; Fig. S3b, MnCl2 as metal, [NADP+] 150 μM): 0.3353 µM/s and 0.3245 µM/s and 0.3419 µM/s

thermal stabilisation (shift in Tm) (wt IDH1 [1]): 2.9 °C
effect of metal ion on catalysis (wt IDH1 [4]; wt IDH1, metal ions 10 mM): promoted
Velocity (wt IDH1 [7]; Fig. S3c, [MnCl2] 12.207 μM): 0.3785 µM/s and 0.3498 µM/s
Velocity (wt IDH1 [7]; Fig. S3c, [MnCl2] 19.5312 μM): 0.3561 µM/s and 0.3846 µM/s
kcat (wt IDH1 [7]; wt IDH1, oxidative reaction with Mn^2+): 81 ± 11 s⁻¹
Km (wt IDH1 [7]; [9]): 2 ± 0.3 µM
Vmax (wt IDH1 [7]; [9]): 416 ± 13 nM/s
SMILES: [Cl][Mn][Cl] [MnCl2]
Velocity (wt IDH1 [7]; Fig. S3c, [MnCl2] 1.16415 μM): 0.08423 µM/s and 0.08186 µM/s and 0.1169 µM/s
Velocity (wt IDH1 [7]; Fig. S3c, [MnCl2] 1.86265 μM): 0.2269 µM/s and 0.1979 µM/s and 0.204 µM/s
Velocity (wt IDH1 [7]; Fig. S3c, [MnCl2] 4.76837 μM): 0.3206 µM/s and 0.2772 µM/s and 0.338 µM/s
Velocity (wt IDH1 [7]; Fig. S3c, [MnCl2] 7.62939 μM): 0.3506 µM/s and 0.2861 µM/s and 0.3632 µM/s
Velocity (wt IDH1 [7]; Fig. S3c, [MnCl2] 31.25 μM): 0.3922 µM/s and 0.3424 µM/s and 0.3875 µM/s
Velocity (wt IDH1 [7]; Fig. S3c, [MnCl2] 50 μM): 0.4096 µM/s and 0.3893 µM/s and 0.3938 µM/s

inhibition by metal ion (wt IDH1 [4]): no effect
SMILES: [Cl-].[Li+] [Li^+]

inhibition by metal ion (wt IDH1 [4]): inhibitory
SMILES: [Cl-].[Cl-].[Zn+2] [Zn^2+, ZnCl2]

inhibition by metal ion (wt IDH1 [4]): inhibiting
SMILES: [Cl-].[Cl-].[Sr+2] [Sr^2+, SrCl2]

inhibition by metal ion (wt IDH1 [4]): no effect
SMILES: [Na+] [Na^+]

binding stoichiometry (wt IDH1 [6]): two inhibitors per IDH1 dimer
weakening of D-isocitrate binding to wt IDH1 (wt IDH1 [3]): not
displacement of D-isocitrate from wt IDH1 (wt IDH1 [3]): partially displaced
SMILES: COc1c(C)cc(NC(=O)c2nn(Cc3ccc(F)cc3)c3c2CN(C(=O)c2ccc[nH]2)C[C@]3(C)C(N)=O)cc1C [GSK864]

inhibition by metal ion (wt IDH1 [4]): no effect
SMILES: [Cl-].[K+] [K^+]

Further lines, the compound ahead of its results:

SMILES: NC(=O)C1=CN([C@@H]2O[C@H](COP(=O)(O)OP(=O)(O)OC[C@H]3O[C@@H](n4cnc5c(N)ncnc54)[C@H](OP(=O)(O)O)[C@@H]3O)[C@@H](O)[C@H]2O)C=CC1 [NADPH]
thermal stabilisation by cosubstrates (wt IDH1 [1]): stabilise
Velocity (wt IDH1 [2]; Fig. S2f, [NADPH] 31.25 μM): 0.06247 µM/s and 0.06738 µM/s and 0.04685 µM/s
Velocity (wt IDH1 [2]; Fig. S2f, [NADPH] 62.5 μM): 0.08774 µM/s and 0.07774 µM/s and 0.04633 µM/s
Velocity (wt IDH1 [2]; Fig. S2f, [NADPH] 250 μM): 0.1446 µM/s and 0.1585 µM/s and 0.1383 µM/s
Velocity (wt IDH1 [2]; Fig. S2f, [NADPH] 500 μM): 0.1648 µM/s and 0.2053 µM/s

SMILES: O=C(O)CNC(=O)C(=O)O [NOG, N-oxalylglycine]
binding to wt IDH1 (wt IDH1 [3]): bind weakly

SMILES: [Cl][Cd][Cl] [Cd^2+, CdCl2]
inhibition by metal ion (wt IDH1 [4]): inhibitory

SMILES: O=C(O)C[C@H](C(=O)O)[C@@H](O)C(=O)O [L-isocitrate]
conversion by wt IDH1 (wt IDH1 [5]): neither a substrate nor an inhibitor

SMILES: [Ba+2].[Cl-].[Cl-] [Ba^2+, BaCl2]
inhibition by metal ion (wt IDH1 [4]): inhibiting

SMILES: [Cl-].[Cl-].[Co+2] [Co^2+, CoCl2]
inhibition by metal ion (wt IDH1 [4]): inhibitory

SMILES: [Cl][Ni][Cl] [Ni^2+, NiCl2]
inhibition by metal ion (wt IDH1 [4]): inhibitory

SMILES: O=C(O)CC(C(=O)O)C(O)C(=O)O (racemic) [DL-isocitrate]
Km (wt IDH1 [7]; wt IDH1, oxidative reaction with Mg^2+ (10 mM MgCl2)): 38 ± 6 µM
Km (wt IDH1 [7]; [9]): 35 ± 4 µM
